Experimental data: patent US7988972B2, “Immunoreactive peptides from Epstein-Barr virus” (Ortho-Clinical Diagnostics, Inc., priority 1993, dated 2011)

What was measured:
[1] = tested on: EA reactive antibody (IgG) in infectious mononucleosis (IM) sera; assay: ELISA, EA peptides with EBV infectious mononucleosis sera; assay type: binding, human; details: for ELISA result, peptides with and without extensions: EA positive EBV IM acute serum; for O.D.: 420 nm
Description: ELISA. The ELISA for measuring specific antibodies to p17, p50 or to the synthetic peptides was performed as previously described in detail (Luka et al., J. Immunol. Methods, 67:145-156, 1984). Aliquots of different antigen concentrations were diluted in 0.5M Na2CO3 buffer, pH 9.5, added to wells in polystyrene microtiter plates (Linbro) and the plates incubated overnight at 4° C. Following this incubation period, the plates were washed 5× with Tris-HCl, pH 7.4, containing 0.05% Tween 20, 50 mM NaCl and 100 mg per liter albumin (Sigma) and dried for 20 minutes at room temperature. The plates were screened with different anti-EA-R or EA-D antibody positive human sera and the monoclonal antibody to p17 or p50 to identify the optimal concentration of antigen to be used in the serological studies. Alkaline-phosphatase-labelled goat anti-human IgG (Sigma) or goat anti-mouse IgG (Sigma) was used as the indicator system.
For the testing of human sera for antibodies to native p17, p50 or to the synthetic peptides, sera were diluted 1:10 in ELISA buffer, added in 0.1 ml volumes to wells coated with optimal concentrations of antigen and the plates were incubated for 60 minutes at room temperature. After 4 washes with ELISA buffer, 100 μl of alkaline phosphatase-labelled goat anti-human IgG in ELISA buffer were added to each well and the plates were incubated at room temperature for 1 hour. Following four more washes in buffer, the enzyme reaction was performed by dissolving 1 mg per ml of Sigma alkaline phosphatase substrate in 1M diethanolamine buffer, pH 10.4, containing 1 mM MgCl2 and 0.1 mM ZnCl2, and 100 μl of the mixture was then added to each well. The reaction was allowed to proceed for 30 minutes at 37° C. and then the plates were screened directly with a microplate reader, TITERTEK MULTISKAN MC (Flow), at 420 nm. Readings above 0.1 which was 2× the background noted with antibody-negative sera were considered positive reactions.
When the entire 50.10 peptide was tested with 1M sera, 24/32 or 75% of the sera contained EA-D reactive antibody (IgG) (Table 4).
Serological reactivity of EA peptides p17.1 and p50.1 which contained additional amino acids on their amino and carboxy termini was tested on EBV IM acute sera which was EA positive. The ELISA results shown in Table 5 indicate that the additional amino acids improved reactivity for both EA peptides.
Immunofluorescence assays (IFA) were performed as described by Henle, et al. (Int. J. Cancer, 8:272-282, 1971). Western blot analysis was done by methods commonly used in the art (See for example, Coligan, et al., Current Protocols in Immunology, Wiley Interscience, 1991, Unit 12). Samples of EBV-infected cell lysates (P3HR-1) were tested with human whole antiserum from positive humans (Pearson, et al., Virology, 160:151-161, 1987). A comparison was made between EA serology by IFA, using the EA-D 50.1 peptide antisera, and ELISA serology using 50.1 peptide (see Example 2).

[2] = tested on: antibodies to peptides 50.10 (EA-D) and 17.1 (EA-R) in sequential sera; assay: IgG ELISA on sequential sera of a patient with acute infectious mononucleosis; assay type: binding, human; details: sera at 1.20 dilution, (+) >0.25
Source text: The early antigen D-R transition was followed in a patient during a course of acute infectious mononucleosis. Antibodies to peptides 50.10 (EA-D) and 17.1 (EA-R) were detected by ELISAs on specimens collected over a six month duration. […] Therefore, the peptides of the invention are useful for monitoring the course of EBV-associated disease in a patient.

[3] = 32 IM sera, values >0.5 positive (O.D. 420 nm)

ETFTETWNRFITHTE [p17.1, synthetic peptide from 17 Kd early antigen (EA-R) region of EBV]
% Positive [1, 3]: 38%
IM sera positive / tested [1, 3]: 12/32
ELISA result, peptides with and without extensions ([1]; sample no. 2241): 0.282
ELISA result, peptides with and without extensions ([1]; sample no. 12498): 0.637
ELISA result, peptides with and without extensions ([1]; sample no. 12836): 0.692
SCORE ([1]; IM serum sample no. 2241): − (Values >0.5 were considered positive (O.D. readings at 420 nm).)
SCORE ([1]; IM serum sample no. 11984): + (Values >0.5 were considered positive (O.D. readings at 420 nm).)
O.D. ([1]; IM serum sample no. 11984): 0.542
SCORE ([1]; IM serum sample no. 12005): + (Values >0.5 were considered positive (O.D. readings at 420 nm).)
O.D. ([1]; IM serum sample no. 12005): 0.981
SCORE ([1]; IM serum sample no. 12288): + (Values >0.5 were considered positive (O.D. readings at 420 nm).)
O.D. ([1]; IM serum sample no. 12288): 0.700
SCORE ([1]; IM serum sample no. 12407): + (Values >0.5 were considered positive (O.D. readings at 420 nm).)
O.D. ([1]; IM serum sample no. 12407): 0.787
SCORE ([1]; IM serum sample no. 12409): + (Values >0.5 were considered positive (O.D. readings at 420 nm).)
O.D. ([1]; IM serum sample no. 12409): 0.592
SCORE ([1]; IM serum sample no. 12418): − (Values >0.5 were considered positive (O.D. readings at 420 nm).)
O.D. ([1]; IM serum sample no. 12418): 0.463
SCORE ([1]; IM serum sample no. 12498): + (Values >0.5 were considered positive (O.D. readings at 420 nm).)
SCORE ([1]; IM serum sample no. 12502): + (Values >0.5 were considered positive (O.D. readings at 420 nm).)
O.D. ([1]; IM serum sample no. 12502): 0.924
SCORE ([1]; IM serum sample no. 12587): + (Values >0.5 were considered positive (O.D. readings at 420 nm).)
O.D. ([1]; IM serum sample no. 12587): 0.571
SCORE ([1]; IM serum sample no. 12600): − (Values >0.5 were considered positive (O.D. readings at 420 nm).)
SCORE ([1]; IM serum sample no. 12611): − (Values >0.5 were considered positive (O.D. readings at 420 nm).)
O.D. ([1]; IM serum sample no. 12611): 0.259
SCORE ([1]; IM serum sample no. 12801): + (Values >0.5 were considered positive (O.D. readings at 420 nm).)
O.D. ([1]; IM serum sample no. 12801): 0.601
SCORE ([1]; IM serum sample no. 12828): − (Values >0.5 were considered positive (O.D. readings at 420 nm).)
O.D. ([1]; IM serum sample no. 12828): 0.375
SCORE ([1]; IM serum sample no. 12829): − (Values >0.5 were considered positive (O.D. readings at 420 nm).)
O.D. ([1]; IM serum sample no. 12829): 0.257
SCORE ([1]; IM serum sample no. 12836): + (Values >0.5 were considered positive (O.D. readings at 420 nm).)
SCORE ([1]; IM serum sample no. 12837): + (Values >0.5 were considered positive (O.D. readings at 420 nm).)
O.D. ([1]; IM serum sample no. 12837): 0.523
SCORE ([1]; IM serum sample no. 12840): − (Values >0.5 were considered positive (O.D. readings at 420 nm).)
O.D. ([1]; IM serum sample no. 12840): 0.488
SCORE ([1]; IM serum sample no. 12888): − (Values >0.5 were considered positive (O.D. readings at 420 nm).)
O.D. ([1]; IM serum sample no. 12888): 0.423
SCORE ([1]; IM serum sample no. 12889): + (Values >0.5 were considered positive (O.D. readings at 420 nm).)
O.D. ([1]; IM serum sample no. 12889): 0.574
SCORE ([1]; IM serum sample no. 12892): − (Values >0.5 were considered positive (O.D. readings at 420 nm).)
O.D. ([1]; IM serum sample no. 12892): 0.430
SCORE ([1]; IM serum sample no. 12893): + (Values >0.5 were considered positive (O.D. readings at 420 nm).)
O.D. ([1]; IM serum sample no. 12893): 0.592
SCORE ([1]; IM serum sample no. 12899): + (Values >0.5 were considered positive (O.D. readings at 420 nm).)
O.D. ([1]; IM serum sample no. 12899): 0.825
SCORE ([1]; IM serum sample no. 12900): − (Values >0.5 were considered positive (O.D. readings at 420 nm).)
O.D. ([1]; IM serum sample no. 12900): 0.264
SCORE ([1]; IM serum sample no. 13075): − (Values >0.5 were considered positive (O.D. readings at 420 nm).)
O.D. ([1]; IM serum sample no. 13075): 0.154
SCORE ([1]; IM serum sample no. 13419): + (Values >0.5 were considered positive (O.D. readings at 420 nm).)
O.D. ([1]; IM serum sample no. 13419): 0.655
SCORE ([1]; IM serum sample no. 13637): + (Values >0.5 were considered positive (O.D. readings at 420 nm).)
O.D. ([1]; IM serum sample no. 13637): 0.719
SCORE ([1]; IM serum sample no. 13769): + (Values >0.5 were considered positive (O.D. readings at 420 nm).)
O.D. ([1]; IM serum sample no. 13769): 0.757
SCORE ([1]; IM serum sample no. 13929): − (Values >0.5 were considered positive (O.D. readings at 420 nm).)
O.D. ([1]; IM serum sample no. 13929): 0.332
SCORE ([1]; IM serum sample no. 14043): − (Values >0.5 were considered positive (O.D. readings at 420 nm).)
O.D. ([1]; IM serum sample no. 14043): 0.095
SCORE ([1]; IM serum sample no. 14128): − (Values >0.5 were considered positive (O.D. readings at 420 nm).)
O.D. ([1]; IM serum sample no. 14128): 0.434
SCORE ([1]; IM serum sample no. 14131): − (Values >0.5 were considered positive (O.D. readings at 420 nm).)
O.D. ([1]; IM serum sample no. 14131): 0.182
IgG ELISA O.D. reading ([2]; serum no. 9817, May 26, 1988): 0.158
IgG ELISA O.D. reading ([2]; serum no. 9820, May 31, 1988): 0.106
IgG ELISA O.D. reading ([2]; serum no. 9829, Jun. 07, 1988): 0.135
IgG ELISA O.D. reading ([2]; serum no. 9941, Jun. 20, 1988): 0.169
IgG ELISA O.D. reading ([2]; serum no. 9983, Jun. 27, 1988): 0.645
IgG ELISA O.D. reading ([2]; serum no. 10064, Jul. 18, 1988): 0.842
IgG ELISA O.D. reading ([2]; serum no. 10237, Aug. 29, 1988): 0.260
IgG ELISA O.D. reading ([2]; serum no. 10271, Sep. 20, 1988): 0.231
IgG ELISA O.D. reading ([2]; serum no. 10488, Oct. 21, 1988): 0.217
IgG ELISA O.D. reading ([2]; serum no. 10546, Nov. 15, 1988): 0.193
